This assay has as its system Hepatoma AH 130. Description: in vivo. Set-up: species or system SPF Wistar rats. As to conditions: additional compounds, result in words. The source says: The high activity against tumours is further illustrated in these experiments by comparisons with known antitumour agents used in the therapy. The therapeutic indexes (T.I.), i.e. the ratios LD50/ED50, are in all comparisons much more favourable with the compounds of the present invention.
LD50 is the dose that caused a 50 percent lethality of the animals, ED50 is the dose that caused a 50 percent reduction of tumour size.
The experimental design and the interpretation of the results have been in accordance with the standards set by the CCNSC (Cancer Chemotherapy Reports, January 1959 and December 1962), and by the DR&D (Cancer Chemotherapy Reports, September 1972, Vol. 3, No. 2).
The way of administration is by the intraperitoneal route (i.p.) in each case.
Experimental animals: SPF Wistar rats.
Tumour implant: 5 × 10^6 tumour cells i.p.
Therapy: One injection i.p. on the day following implantation.
Termination: The animals are killed on the 8th day.
Evaluation: Weights of tumours of test animals compared with those of control animals.

Molecules are shown by their SMILES.

For the compound `CC1CC2(C)C(CCC3C2CCC2(C)C(OC(=O)N(CCCl)N=O)CCC32)CC1=O` (stereo not drawn) [2α-methyl-dihydrotestosterone-17β-N-(2-chloroethyl)-N-nitroso carbamate], the anti-tumor activity entry was “exhibit anti-tumor activity”. On to `CC1=C2CC[C@H]3[C@@H]4CC[C@H](OC(=O)N(CCCl)N=O)[C@@]4(C)CC[C@@H]3[C@@]2(C)CCC1=O` [4-methyl-testosterone-17β-N-(2-chloroethyl)-N-nitroso carbamate], for which the anti-tumor activity result is “exhibit anti-tumor activity”.

As to `CC(=O)[C@@]1(OC(=O)N(CCCl)N=O)CC[C@H]2[C@@H]3C=C(Cl)C4=CC(=O)CC[C@]4(C)[C@H]3CC[C@@]21C` [6-chloro-6-dehydro-17α-hydroxyprogesterone,17α-N-(2-chloroethyl)-N-nitroso carbamate], the anti-tumor activity entry is on record as “exhibit anti-tumor activity”. For the compound `CC(=O)[C@@]1(O)CC[C@H]2[C@@H]3C=C(Cl)C4=C[C@@H](OC(=O)N(CCCl)N=O)CC[C@]4(C)[C@H]3CC[C@@]21C` [6-chloro-pregna-4,6-diene-3β,17α-diol-20-one,3β-N-(2-chloroethyl)-N-nitroso carbamate], the anti-tumor activity result is “exhibit anti-tumor activity”.

In the case of `CC(=O)[C@@]1(OC(=O)N(CCCl)N=O)CC[C@H]2[C@@H]3C[C@H](C)C4=CC(=O)CC[C@]4(C)[C@H]3CC[C@@]21C` [6α-methyl-17α-hydroxy-progesterone,17α-N-(2-chloroethyl)-N-nitroso carbamate], the anti-tumor activity entry is “exhibit anti-tumor activity”. Turning to `C[C@H]1C[C@H]2[C@@H]3CC[C@H](OC(=O)N(CCCl)N=O)[C@@]3(C)CC[C@@H]2[C@@]2(C)CCC(=O)C=C12` [6α-methyltestosterone-17β-N-(2-chloroethyl)-N-nitroso carbamate], the anti-tumor activity entry is reported as “exhibit anti-tumor activity”. Consider `C[C@@H]1CC2=CC(=O)CC[C@]2(C)[C@H]2CC[C@@]3(C)[C@@H](CC[C@]3(C)OC(=O)N(CCCl)N=O)[C@H]12` [7α,17α-dimethyltestosterone-17β-N-(2-chloroethyl)-N-nitroso carbamate], for which the anti-tumor activity entry is on record as “exhibit anti-tumor activity”. On to `C[C@]12CCC(=O)C=C1CC[C@H]1[C@@H]3CC[C@](C)(OC(=O)N(CCCl)N=O)[C@@]3(C)C[C@H](O)[C@@]12F` [9α-fluoro-11β-hydroxy-17α-methyltestosterone-17β-N-(2-chloroethyl)-N-nitroso carbamate], for which the anti-tumor activity entry is reported as “exhibit anti-tumor activity”. `C=CC[C@]1(OC(=O)N(CCCl)N=O)CC[C@H]2[C@@H]3CCC4=CCCC[C@@H]4[C@H]3CC[C@@]21C` [17α-allyl-estr-4-en-17β-ol,17β-N-(2-chloroethyl)-N-nitroso carbamate]: the anti-tumor activity entry is listed as “exhibit anti-tumor activity”.

With `C#C[C@]1(OC(=O)N(CCCl)N=O)CC[C@H]2[C@@H]3CCC4=CC(=O)CC[C@@H]4[C@H]3CC[C@@]21CC` [17α-ethynyl-18-methyl-19-nortestosterone-17β-N-(2-chloroethyl)-N-nitroso carbamate], the anti-tumor activity entry is on record as “exhibit anti-tumor activity”. Under `C[C@]12CCC(=O)C=C1CC[C@@H]1[C@@H]2CC[C@@]2(C)[C@H]1CC[C@]2(C)OC(=O)N(CCCl)N=O` [17α-methyltestosterone-17β-N-(2-chloroethyl)-N-nitroso carbamate] stands “exhibit anti-tumor activity”. For `C[C@]12CC[C@H]3[C@@H](CC=C4C[C@@H](OC(=O)N(CCCl)N=O)CC[C@@]43C)[C@@H]1CC[C@@H]2OP(=O)(O)O` [androstenediol-3β-/N-(2-chloroethyl)-N-nitroso carbamate/-17β-dihydrogen phosphate], the anti-tumor activity result was “exhibit anti-tumor activity”. Consider `CCOP(=O)(O)O[C@H]1CC[C@H]2[C@@H]3CC=C4C[C@@H](OC(=O)N(CCCl)N=O)CC[C@]4(C)[C@H]3CC[C@]12C` [androstenediol-3β-/N-(2-chloroethyl)-N-nitroso carbamate/-17β-ethyl hydrogen phosphate], for which the anti-tumor activity result is “exhibit anti-tumor activity”.

Consider `C[C@]12CC[C@H]3[C@@H](CC=C4C[C@@H](OC(=O)N(CCCl)N=O)CC[C@@]43C)[C@@H]1CC[C@@H]2OP(=O)(O)Oc1ccccc1` [androstenediol-3β-/N-(2-chloroethyl)-N-nitroso carbamate/-17β-phenyl hydrogen phosphate], for which the anti-tumor activity result is given as “exhibit anti-tumor activity”. The entry for `C[C@]12CC[C@H]3[C@@H](CC=C4C[C@@H](OC(=O)N(CCCl)N=O)CC[C@@]43C)[C@@H]1CC[C@@H]2OS(=O)(=O)O` [androstenediol-3β-/N-(2-chloroethyl)-N-nitroso carbamate/-17β-sodium sulphate] is “exhibit anti-tumor activity”; for `CN(C(=O)O[C@H]1CC[C@@]2(C)C(=CC[C@H]3[C@@H]4CC[C@H](OP(=O)(O)O)[C@@]4(C)CC[C@@H]32)C1)C(=O)N(CCCl)N=O` [androstenediol-3β-/N^2-methyl-N^4-(2-chloroethyl)-N^4 nitroso allophanate/-17β-dihydrogen phosphate] it is “exhibit anti-tumor activity”; for `C[C@]12CC[C@H]3[C@@H](CC=C4C[C@@H](OC(=O)N(CCCl)N=O)CC[C@@]43C)[C@@H]1CC[C@@H]2OC(=O)c1ccccc1` [androstenediol-17β-benzoate-3β-N-(2-chloroethyl)-N-nitroso carbamate] it is “exhibit anti-tumor activity”. Under `C[C@]12CC[C@H]3[C@@H](CC=C4C[C@@H](OC(=O)N(CCCl)N=O)CC[C@@]43C)[C@@H]1CC[C@@H]2OC(=O)CCC(=O)O` [androstenediol-17β-hemisuccinate-3β-N-(2-chloroethyl)-N-nitroso carbamate] stands “exhibit anti-tumor activity”; under `CO[C@H]1CC[C@H]2[C@@H]3CC=C4C[C@@H](OC(=O)N(CCCl)N=O)CC[C@]4(C)[C@H]3CC[C@]12C` [androstenediol-17β-methylether-3β-N-(2-chloroethyl)-N-nitroso carbamate], “exhibit anti-tumor activity”; under `CCCCCCOc1ccc(CCC(=O)O[C@H]2CC[C@H]3[C@@H]4CC=C5C[C@@H](OC(=O)N(CCCl)N=O)CC[C@]5(C)[C@H]4CC[C@]23C)cc1` [androstenediol-17β-p-hexoxyphenylpropionate-3β-N-(2 -chloroethyl)-N-nitroso carbamate], “exhibit anti-tumor activity”. For `CC(C)CCC[C@@H](C)[C@H]1CC[C@H]2[C@@H]3CC=C4C[C@@H](OC(=O)N(CCCl)C(=O)N(CCCl)N=O)CC[C@]4(C)[C@H]3CC[C@]12C` [cholesterol-3β-/N^2,N^4-bis (2-chloroethyl)-N^4-nitroso allophanate/], the anti-tumor activity result is “exhibit anti-tumor activity”.

In the case of `CC(C)CCC[C@@H](C)[C@H]1CC[C@H]2[C@@H]3CC=C4C[C@@H](OC(=O)N(C)C(=O)N(CCCl)N=O)CC[C@]4(C)[C@H]3CC[C@]12C` [cholesterol-3β-/N^2-methyl-N^4-(2-chloroethyl)-N^4-nitroso allophanate/], the anti-tumor activity entry is “exhibit anti-tumor activity”.

Turning to `CC(C)CCC[C@@H](C)[C@H]1CC[C@H]2[C@@H]3CC=C4C[C@@H](OC(=O)N(C(=O)N(CCCl)N=O)c5ccccc5)CC[C@]4(C)[C@H]3CC[C@]12C` [cholesterol-3β-/N^2-phenyl-N^4-(2-chloroethyl)-N^4-nitroso allophanate/], the anti-tumor activity entry was “exhibit anti-tumor activity”.

On to `CC(C)CCC[C@@H](C)[C@H]1CC[C@H]2[C@@H]3CC=C4C[C@@H](OC(=O)NC(=O)N(CCCl)N=O)CC[C@]4(C)[C@H]3CC[C@]12C` [cholesterol-3β-/N^4-(2-chloroethyl)-N^4-nitroso allophanate/], for which the anti-tumor activity entry is “exhibit anti-tumor activity”. Take `CC(C)CCC[C@@H](C)[C@H]1CC[C@H]2[C@@H]3CC=C4C[C@@H](OC(=O)N(CCF)N=O)CC[C@]4(C)[C@H]3CC[C@]12C` [cholesterol-3β-N-(2-fluoroethyl)-N-nitroso carbamate]: the anti-tumor activity entry is reported as “exhibit anti-tumor activity”. For the compound `CC(=O)OCC(=O)[C@H]1CC[C@H]2[C@@H]3CCC4=CC(=O)CC[C@]4(C)[C@H]3[C@@H](OC(=O)N(CCCl)N=O)C[C@]12C` [corticosterone-21-acetate-11β-N-(2-chloroethyl)-N-nitroso carbamate], the anti-tumor activity entry was “exhibit anti-tumor activity”.

Regarding `Cc1ccc(N(C(=O)O[C@H]2CC[C@@]3(C)C(=CC[C@@H]4[C@@H]3CC[C@]3(C)C(=O)CC[C@@H]43)C2)C(=O)N(CCCl)N=O)cc1C` [dehydroepiandrosterone-3β-/N^2-(3,4-dimethylphenyl)-N^4-(2-chloroethyl)-N^4-nitroso allophanate/], the anti-tumor activity result is listed as “exhibit anti-tumor activity”.

Consider `CC1CCC(N(C(=O)O[C@H]2CC[C@@]3(C)C(=CC[C@@H]4[C@@H]3CC[C@]3(C)C(=O)CC[C@@H]43)C2)C(=O)N(CCCl)N=O)CC1` (stereo partly drawn) [dehydroepiandrosterone-3β-/N^2-(4-methylcyclohexyl)-N^4-(2-chloroethyl)-N^4-nitroso allophanate/], for which the anti-tumor activity result was “exhibit anti-tumor activity”. Turning to `CC(C)[C@@H](C)/C=C/[C@@H](C)[C@H]1CC[C@H]2C3=CC=C4C[C@@H](OC(=O)N(CCCl)N=O)CC[C@]4(C)[C@H]3CC[C@]12C` [ergosterol-3β-N-(2-chloroethyl)-N-nitroso carbamate], the anti-tumor activity entry is “exhibit anti-tumor activity”.

As for `C[C@@]12C=CC[C@H]1[C@@H]1CCc3cc(OC(=O)N(CCCl)N=O)ccc3[C@H]1CC2` [estra-1,3,5(10),16-tetraen-3-ol,3-N-(2-chloroethyl)-N-nitroso carbamate], the anti-tumor activity entry is listed as “exhibit anti-tumor activity”.

The record behind these values is patent US3963707A, “Novel N-nitroso compounds, compositions containing such compounds, processes for their preparation and methods of treatment therewith, and novel intermediates” (Aktiebolaget Leo, priority 1973, dated 1976).
